# Reference: patent US11548871B2, “Triazole carbamate pyridyl sulfonamides as LPA receptor antagonists and uses thereof” (Gilead Sciences, Inc., priority 2019, dated 2023)
# Target: human LPAR1 (Homo sapiens, UniProt Q92633)
# Experiment: LPAR1 intracellular calcium mobilization assay (antagonist mode)
# Sequence of human LPAR1 (Q92633 whole entry): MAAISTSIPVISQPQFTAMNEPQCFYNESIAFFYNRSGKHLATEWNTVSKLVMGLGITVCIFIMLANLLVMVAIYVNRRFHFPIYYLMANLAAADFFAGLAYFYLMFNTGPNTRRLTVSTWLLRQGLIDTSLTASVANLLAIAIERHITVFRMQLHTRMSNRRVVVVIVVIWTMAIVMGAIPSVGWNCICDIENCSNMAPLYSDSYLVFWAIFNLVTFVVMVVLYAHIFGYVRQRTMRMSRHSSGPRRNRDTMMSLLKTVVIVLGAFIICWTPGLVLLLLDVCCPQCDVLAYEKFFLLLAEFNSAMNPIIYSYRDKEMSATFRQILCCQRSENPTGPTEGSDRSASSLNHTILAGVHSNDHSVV
row,Structure (SMILES),EC50
1,"C[C@@H](OC(=O)Nc1c(-c2ccc(NS(C)(=O)=O)cn2)nnn1C)c1cc(Cl)sc1Cl [Compound 110, (R)-1-(2,5-dichlorothiophen-3-yl)ethyl (1-methyl-4-(5-(methylsulfonamido)pyridin-2-yl)-1H-1,2,3-triazol-5-yl)carbamate]",0.0123 µM
2,"C[C@@H](OC(=O)Nc1c(-c2ccc(NS(C)(=O)=O)cn2)nnn1C)c1cccnc1Cl [Compound 23, (R)-1-(2-chloropyridin-3-yl)ethyl (1-methyl-4-(5-(methylsulfonamido)pyridin-2-yl)-1H-1,2,3-triazol-5-yl)carbamate]",0.036 µM
3,"CCCn1nnc(-c2ccc(NS(C)(=O)=O)c(C)n2)c1NC(=O)O[C@H](C)c1ccccc1Cl [Compound 12, (R)-1-(2-chlorophenyl)ethyl (4-(6-methyl-5-(methylsulfonamido)pyridin-2-yl)-1-propyl-1H-1,2,3-triazol-5-yl)carbamate]",0.221 µM
4,"Cc1nc(-c2nnn(C)c2NC(=O)O[C@@H](c2ccccc2F)C(F)(F)F)ccc1NS(C)(=O)=O [Compound 97, (S)-2,2,2-trifluoro-1-(2-fluorophenyl)ethyl(1-methyl-4-(6-methyl-5-(methylsulfonamido)pyridin-2-yl)-1H-1,2,3-triazol-5-yl)carbamate]",0.387 µM
5,"Cc1nc(-c2nnn(C)c2NC(=O)O[C@H](C)c2cc(F)cnc2C#N)ccc1NS(C)(=O)=O [Compound 152, 1-(2-cyano-5-fluoropyridin-3-yl)ethyl (1-methyl-4-(6-methyl-5-(methylsulfonamido)pyridin-2-yl)-1H-1,2,3-triazol-5-yl)carbamate]",1.3 µM
6,"Cn1nnc(-c2ccc(NS(C)(=O)=O)c(F)n2)c1NC(=O)O[C@@H](c1ccccc1)C(F)F [Compound 6, (S)-2,2-difluoro-1-phenylethyl (4-(6-fluoro-5-(methylsulfonamido)pyridin-2-yl)-1-methyl-1H-1,2,3-triazol-5-yl)carbamate]",0.0713 µM
7,"CNc1nc(-c2nnn(C)c2NC(=O)O[C@H](CF)c2ccccc2)ccc1NS(C)(=O)=O [Compound 155, (S)-2-fluoro-1-phenylethyl (1-methyl-4-(6-(methylamino)-5-(methylsulfonamido)pyridin-2-yl)-1H-1,2,3-triazol-5-yl)carbamate]",0.0847 µM
8,"Cc1cccc(COC(=O)Nc2c(-c3ccc(NS(C)(=O)=O)c(C)n3)nnn2C)c1 [Compound 37, 3-methylbenzyl (1-methyl-4-(6-methyl-5-(methylsulfonamido)pyridin-2-yl)-1H-1,2,3-triazol-5-yl)carbamate]",0.172 µM
9,"Cc1nc(-c2nnn(C)c2NC(=O)O[C@H](C)c2cccnc2Cl)ccc1NS(C)(=O)=O [Compound 68, (R)-1-(2-chloropyridin-3-yl)ethyl (1-methyl-4-(6-methyl-5-(methylsulfonamido)pyridin-2-yl)-1H-1,2,3-triazol-5-yl)carbamate]",0.218 µM
10,"Cc1nc(-c2nnn(C)c2NC(=O)O[C@@H](c2cccc(Cl)c2)C(F)F)ccc1NS(C)(=O)=O [Compound 62, (S)-1-(3-chlorophenyl)-2,2-difluoroethyl (1-methyl-4-(6-methyl-5-(methylsulfonamido)pyridin-2-yl)-1H-1,2,3-triazol-5-yl)carbamate]",0.029 µM
11,"Cc1nc(-c2nnn(C)c2NC(=O)OC(c2cccnc2Cl)C(F)F)ccc1NS(C)(=O)=O (centres unmarked) [Compound 137, 1-(2-chloropyridin-3-yl)-2,2-difluoroethyl (1-methyl-4-(6-methyl-5-(methylsulfonamido)pyridin-2-yl)-1H-1,2,3-triazol-5-yl)carbamate]",0.493 µM
12,"COCc1nc(-c2nnn(C)c2NC(=O)O[C@H](C)c2cccnc2Cl)ccc1NS(C)(=O)=O [Compound 145, (R)-1-(2-chloropyridin-3-yl)ethyl (4-(6-(methoxymethyl)-5-(methylsulfonamido)pyridin-2-yl)-1-methyl-1H-1,2,3-triazol-5-yl)carbamate]",0.493 µM
13,"CC(C)NS(=O)(=O)Nc1ccc(-c2nnn(C)c2NC(=O)O[C@H](C)c2cccnc2Cl)nc1 [Compound 160, (R)-1-(2-chloropyridin-3-yl)ethyl (4-(5-((N-isopropylsulfamoyl)amino)pyridin-2-yl)-1-methyl-1H-1,2,3-triazol-5-yl)carbamate]",0.267 µM
14,"Cc1nc(-c2nnn(C)c2NC(=O)OCCC(C)(C)C)ccc1NS(C)(=O)=O [Compound 32, 3,3-dimethylbutyl (1-methyl-4-(6-methyl-5-(methylsulfonamido)pyridin-2-yl)-1H-1,2,3-triazol-5-yl)carbamate]",1.69 µM
15,"Cc1nc(-c2nnn(C)c2NC(=O)O[C@H](C)c2cc(Cl)sc2Cl)ccc1NS(C)(=O)=O [Compound 52, (R)-1-(2,5-dichlorothiophen-3-yl)ethyl (1-methyl-4-(6-methyl-5-(methylsulfonamido)pyridin-2-yl)-1H-1,2,3-triazol-5-yl)carbamate]",0.0167 µM
16,"COC1CN(S(=O)(=O)Nc2ccc(-c3nnn(C)c3NC(=O)O[C@H](C)c3cccc(F)c3)nc2C)C1 [Compound 108, (R)-1-(3-fluoro-phenyl)ethyl (4-(5-((3-methoxy-azetidine)-1-sulfonamido)-6-methylpyridin-2-yl)-1-methyl-1H-1,2,3-triazol-5-yl)carbamate]",10 µM

row,Structure (SMILES),EC50
1,"Cc1nc(-c2nnn(C)c2NC(=O)O[C@H](CF)c2cccc(Cl)c2)ccc1NS(C)(=O)=O [Compound 25, (S)-1-(3-chlorophenyl)-2-fluoroethyl (1-methyl-4-(6-methyl-5-(methylsulfonamido)pyridin-2-yl)-1H-1,2,3-triazol-5-yl)carbamate]",0.0187 µM
2,"C[C@@H](OC(=O)Nc1c(-c2ccc(NS(C)(=O)=O)c(Cl)n2)nnn1C)c1cccnc1Cl [Compound 154, (R)-1-(2-chloropyridin-3-yl)ethyl (4-(6-chloro-5-(methylsulfonamido)pyridin-2-yl)-1-methyl-1H-1,2,3-triazol-5-yl)carbamate]",0.278 µM
3,"Cc1nc(-c2nnn(C)c2NC(=O)OCc2cccc(Cl)c2)ccc1NS(C)(=O)=O [Compound 39, 3-chlorobenzyl (1-methyl-4-(6-methyl-5-(methylsulfonamido)pyridin-2-yl)-1H-1,2,3-triazol-5-yl)carbamate]",0.0895 µM
4,"Cc1ccccc1[C@@H](C)OC(=O)Nc1c(-c2ccc(NS(C)(=O)=O)c(C)n2)nnn1C [Compound 42, (R)-1-(o-tolyl)ethyl (1-methyl-4-(6-methyl-5-(methylsulfonamido)pyridin-2-yl)-1H-1,2,3-triazol-5-yl)carbamate]",0.0461 µM
5,"Cc1nc(-c2nnn(C)c2NC(=O)O[C@H](C)c2cccc(F)c2)ccc1NS(=O)(=O)C1CCC1 [Compound 104, (R)-1-(3-fluoro-phenyl)ethyl(4-(5-(cyclobutane-sulfonamido)-6-methylpyridin-2-yl)-1-methyl-1H-1,2,3-triazol-5-yl)carbamate]",0.434 µM
6,"Cc1nc(-c2nnn(CC#N)c2NC(=O)O[C@H](C)c2ccccc2)ccc1NS(C)(=O)=O [Compound 99, (R)-1-phenylethyl(1-(cyanomethyl)-4-(6-methyl-5-(methylsulfonamido)pyridin-2-yl)-1H-1,2,3-triazol-5-yl)carbamate]",0.0446 µM
7,"Cc1nc(-c2nnn(C)c2NC(=O)O[C@H](C)c2ccnn2C)ccc1NS(C)(=O)=O [Compound 135, (R)-1-(1-methyl-1H-pyrazol-5-yl)ethyl (1-methyl-4-(6-methyl-5-(methylsulfonamido)pyridin-2-yl)-1H-1,2,3-triazol-5-yl)carbamate]",2.98 µM
8,"CCCCC[C@H](OC(=O)Nc1c(-c2ccc(NS(C)(=O)=O)c(C)n2)nnn1C)C(F)(F)F [Compound 47, (S)-1,1,1-trifluoroheptan-2-yl (1-methyl-4-(6-methyl-5-(methylsulfonamido)pyridin-2-yl)-1H-1,2,3-triazol-5-yl)carbamate]",0.132 µM
9,"Cc1nc(-c2nnn(C)c2NC(=O)OC(C)c2ccncc2Cl)ccc1NS(C)(=O)=O (centres unmarked) [Compound 75, 1-(3-chloropyridin-4-yl)ethyl (1-methyl-4-(6-methyl-5-(methylsulfonamido)pyridin-2-yl)-1H-1,2,3-triazol-5-yl)carbamate]",0.155 µM
10,"Cc1nc(-c2nnn(C)c2NC(=O)O[C@H](C)c2cc(Cl)ccc2Cl)ccc1NS(C)(=O)=O [Compound 61, (R)-1-(2,5-dichlorophenyl)ethyl (1-methyl-4-(6-methyl-5-(methylsulfonamido)pyridin-2-yl)-1H-1,2,3-triazol-5-yl)carbamate]",0.03 µM
11,"Cc1nc(-c2nnn(C)c2NC(=O)O[C@H](CF)c2cccc(F)c2)ccc1NS(C)(=O)=O [Compound 43, (S)-2-fluoro-1-(3-fluorophenyl)ethyl (1-methyl-4-(6-methyl-5-(methylsulfonamido)pyridin-2-yl)-1H-1,2,3-triazol-5-yl)carbamate]",0.0184 µM
12,"Cc1nc(-c2nnn(C)c2NC(=O)O[C@H](C)c2cccnc2)ccc1NS(C)(=O)=O [Compound 67, (R)-1-(pyridin-3-yl)ethyl (1-methyl-4-(6-methyl-5-(methylsulfonamido)pyridin-2-yl)-1H-1,2,3-triazol-5-yl)carbamate]",1.63 µM
13,"Cc1nc(-c2nnn(C)c2NC(=O)N[C@@H](c2ccccc2)C(F)(F)F)ccc1NS(C)(=O)=O [Compound 66, (S)-N-(2-methyl-6-(1-methyl-5-(3-(2,2,2-trifluoro-1-phenylethyl)ureido)-1H-1,2,3-triazol-4-yl)pyridin-3-yl)methanesulfonamide]",0.54 µM
14,"C[C@@H](OC(=O)Nc1c(-c2ccc(NS(C)(=O)=O)cn2)nnn1C)c1ccccc1F [Compound 16, (R)-1-(2-fluorophenyl)ethyl (1-methyl-4-(5-(methylsulfonamido)pyridin-2-yl)-1H-1,2,3-triazol-5-yl)carbamate]",0.0053 µM
15,"Cc1nc(-c2nnn(C)c2NC(=O)O[C@H](C)c2ccccc2C(F)(F)F)ccc1NS(C)(=O)=O [Compound 98, (R)-1-(2-(trifluoromethyl)phenyl)ethyl (1-methyl-4-(6-methyl-5-(methylsulfonamido)pyridin-2-yl)-1H-1,2,3-triazol-5-yl)carbamate]",0.0699 µM
16,"COc1nc(-c2nnn(C)c2NC(=O)O[C@@H](c2ccccc2)C(F)F)ccc1NS(C)(=O)=O [Compound 7, (S)-2,2-difluoro-1-phenylethyl (4-(6-methoxy-5-(methylsulfonamido)pyridin-2-yl)-1-methyl-1H-1,2,3-triazol-5-yl)carbamate]",0.112 µM
